Patent US4829061A, “1-(4-Hydroxy-3,5-di-tert.-butylbenzoyl)homopiperazine, various derivatives thereof, processes for the preparation of these compounds, medicaments containing them, and their use” (Hoechst Aktiengesellschaft, priority 1987, dated 1989)

Assays:
[1] = tested on: reverse passive Arthus reaction; experiment: Reverse passive Arthus reaction in the rat; assay type: in vivo, rat (female and male Sprague-Dawley); details: 1 hour before induction, paw volume 4 hours after ovalbumin challenge
Protocol: (§1) The antiinflammatory effect of the compounds of the formula I, according to the invention, was tested on adjuvant arthritis, and the effect on forms of rheumatic disorders having a severe course (chronic graft-versus-host diseases and autoimmune diseases mediated by immune complexes) was tested on the chronic graft-versus-host (cGvH) reaction in the mouse and in the reverse passive Arthus reaction in the rat in accordance with the animal models described below. The tolerability was determined by determining the toxicity in rats, namely by continuous administration for 14 days.
The experimental animals used were female and male Sprague-Dawley rats with a body weight between 80 and 100 g. The rats were divided into groups each comprising 8 animals. 1 hour before the Arthus reaction was induced by injection of 0.1 ml of an anti-rat IgG solution (0.6 mg/ml) into the right rear paw, the particular test substance or the pure vehicle (positive controls) was administered orally. Sodium chloride solution was injected into the left paw. A group of non-sensitized animals (negative controls) was likewise treated with ovalbumin in order to be able to rule out non-specific reactions to the protein. The parameter used to measure the action of the products was the percentage change in the increase in paw volume compared with that in the control group (positive controls) which, although sensitized, was untreated, 4 hours after the ovalbumin challenge, when the swelling had reached its maximum.

[2] = Determination of toxicity in the rat, 14 days (weight gain); assay type: in vivo, rat (male and female Wistar); details: 50 or 75 mg/kg p.o. each day for 14 days
Protocol: as §1
Groups of 10 male and female Wistar rats were fed each day for a period of 14 days with 50 or 75 mg/kg p.o., and were weighed every 2 days. The experiment was terminated after 14 days, and the weight gain was determined. The same number of rats not treated with the products acted as controls. […] This is regarded as a critical parameter for the tolerability of a compound.

[3] = tested on: adjuvant-induced arthritis in the rat; experiment: Adjuvant arthritis (method of Pearson), paw volume; assay type: in vivo, rat (male, Wistar-Lewis strain); details: 50 mg/kg p.o. once a day, day 1 to 5; reduction in increase in paw volume vs control
Protocol: as §1
The investigations were carried out by the method of Pearson (Arthrit. Rheum. 2 (1959) page 44). The test animals used were male rats of a Wistar-Lewis strain with a body weight between 130 and 200 g. The compounds to be tested were administered orally (p.o.) in doses of 50 mg per kg of body weight once a day from the 1st to the 5th day of the experiment. The animals in a control group received only the vehicle. Each product and control group comprised 8 animals. The criterion used for an effect was the percentage reduction in the increase in paw volume compared with that in the untreated control group.

cGvH disease = experiment: Chronic graft-versus-host (cGvH) reaction in the mouse; assay type: in vivo, mouse (female (DBA/2×C57Bl/6)F1); details: 6 weeks from day 21
Protocol: as §1
The features of graft-versus-host disease, which is based on an immune reaction originating from the transplant and directed against the host tissue, are, in the form having an acute course which almost always ends fatally, enlargement of the spleen, hepatomegaly, lymph node hypertrophy, hemolytic anemia, low immunoglobulin and complement levels, and diminished immunoreactivity. The chronic form of the disease, which has a somewhat milder course, results in lymphadenopathy, immune complex glomerulonephritis and excessive formation of non-organ-specific autoantibodies. The clinical picture of systemic lupus erythematosus (SLE), which is likewise one of the autoimmune diseases, has similar features.
Investigation of the compounds used according to the invention on the course of the cGvH disease induced in response to two injections of spleen and thymus cells, mixed together, in female mice of the (DBA/2×C57Bl/6)F1 generation was carried out by the design of experiment described by S. Popovic and R. R. Bartlett (Agents and Actions 21 (1987), 284-286), with intravenous administration, at a time interval of 7 days, of, in each case, 5×10^7 DBA/2 cells, likewise obtained from female donor animals, in 0.2 ml of culture medium. For reliable assessment of the course and appearance of the disease, a group of healthy animals was included as negative controls in all the experiments. The 6-week oral treatment of the animals with the disease took place from day 21 after the first donor cell injection, with administration once a day of the test substance or the pure vehicle (positive controls). […]
The action of the product was assessed on the basis of the inhibition of proteinuria and the cGvH index. The animals with the disease develop, as a consequence of the damage to nephrons due to deposition of immune complexes on the basement membranes of the glomeruli, a pronounced proteinuria which correlates with the extent of the glomerulonephritis and can easily be quantified by the increase in the amount of protein excreted with the urine. The second measured parameter, the cGvH index, is based on the great enlargement of the spleen (splenomegaly) caused by the cGvH reaction. […]

Structure (SMILES)	Reverse passive Arthus reaction, % inhibition ([1]; 20 mg/kg p.o.) [%]	Reverse passive Arthus reaction, % inhibition ([1]; 25 mg/kg p.o.) [%]	change in the weights (weight gain) [2]	% inhibition in paw volume day 5 [3] [%]	Reverse passive Arthus reaction, % inhibition ([1]; 100 mg/kg p.o.) [%]	% inhibition Proteinuria (cGvH disease; 5 mg/kg/day p.o.) [%]	% inhibition cGvH index (cGvH disease; 5 mg/kg/day p.o.) [%]	% inhibition Proteinuria (cGvH disease; 20 mg/kg/day p.o.) [%]	% inhibition cGvH index (cGvH disease; 20 mg/kg/day p.o.) [%]
CC(C)(C)c1cc(C(=O)N2CCCNCC2)cc(C(C)(C)C)c1O [Example 2, 1-(4-Hydroxy-3,5-di-tert.-butylbenzoyl)homopiperazine]	28	37	no significant change in the weights	34	–	–	–	–	–
CC(C)(C)c1cc(C(=O)N2CCCN(C(=O)OCc3ccccc3)CC2)cc(C(C)(C)C)c1O [Example 1, 1-(4-Hydroxy-3,5-di-tert.-butylbenzoyl)-4-benzyloxycarbonylhomopiperazine]	–	–	no significant change in the weights	25	25	100	57	80	75
